Source: PubChem BioAssay (NCI)
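The compound was tested at five concentrations on cells cultured in 96-well plates, with a 48-hour exposure period. Abbreviation: GI50, concentration required for 50% inhibition of growth. TGI is the concentration that stops growth completely.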

Tests used:
Assay in all cases: NCI tumour cell line growth inhibition, 48 h
[1] = tested on: 786-0 renal
[2] = tested on: A498 renal
[3] = tested on: A549 NSCLC
[4] = tested on: ACHN renal
[5] = tested on: BT-549 breast
[6] = tested on: CAKI-1 renal
[7] = tested on: CCRF-CEM leukemia
[8] = tested on: COLO 205 colon
[9] = tested on: DU-145 prostate
[10] = tested on: EKVX NSCLC
[11] = tested on: HCC-2998 colon
[12] = tested on: HCT-116 colon
[13] = tested on: HCT-15 colon
[14] = tested on: HL-60(TB) leukemia
[15] = tested on: HOP-62 NSCLC
[16] = tested on: HOP-92 NSCLC
[17] = tested on: HS 578T breast
[18] = tested on: HT29 colon
[19] = tested on: IGROV1 ovarian
[20] = tested on: K-562 leukemia
[21] = tested on: KM12 colon
[22] = tested on: LOX IMVI melanoma
[23] = tested on: M14 melanoma
[24] = tested on: MALME-3M melanoma
[25] = tested on: MCF7 breast
[26] = tested on: MDA-MB-231 breast
[27] = tested on: MDA-MB-435
[28] = tested on: MOLT-4 leukemia
[29] = tested on: NCI-H226 lung
[30] = tested on: NCI-H23 lung
[31] = tested on: NCI-H460 lung
[32] = tested on: NCI-H522 lung
[33] = tested on: NCI/ADR-RES ovarian
[34] = tested on: OVCAR-3 ovarian
[35] = tested on: OVCAR-4 ovarian
[36] = tested on: OVCAR-5 ovarian
[37] = tested on: OVCAR-8 ovarian
[38] = tested on: PC-3 prostate
[39] = tested on: RPMI-8226 leukemia
[40] = tested on: RXF 393 renal
[41] = tested on: SF-268 CNS
[42] = tested on: SF-295 CNS
[43] = tested on: SF-539 CNS
[44] = tested on: SK-MEL-2 melanoma
[45] = tested on: SK-MEL-28 melanoma
[46] = tested on: SK-MEL-5 melanoma
[47] = tested on: SK-OV-3 ovarian
[48] = tested on: SN12C renal
[49] = tested on: SNB-19 CNS
[50] = tested on: SNB-75 CNS
[51] = tested on: SR leukemia
[52] = tested on: SW-620 colon
[53] = tested on: T-47D breast
[54] = tested on: TK-10 renal
[55] = tested on: U251 CNS
[56] = tested on: UACC-257 melanoma
[57] = tested on: UACC-62 melanoma
[58] = tested on: UO-31 renal
[59] = tested on: MDA-N

Compound `CN1CCN(c2ccc3nc(-c4[nH]ncc4Nc4ncnc5[nH]ccc45)[nH]c3c2)CC1` has a GI50 [1] of 0.387 µM, a TGI [1] of 2.21 µM and a GI50 [2] of 0.253 µM. It also gave a TGI [2] of 0.588 µM, a GI50 [3] of 1.74 µM and a TGI [3] of 15 µM. It also gave a GI50 [4] of 0.394 µM, a TGI [4] of 7.66 µM and a GI50 [5] of 0.222 µM. For the same compound, the TGI [5] was 0.816 µM, the GI50 [6] was 0.183 µM and the TGI [6] was 1.57 µM. The GI50 [7] was 0.171 µM, the TGI [7] was 22.3 µM and the GI50 [8] was 0.147 µM. The TGI [8] was 0.695 µM, the GI50 [9] was 0.362 µM and the TGI [9] was 22.7 µM. For the same compound, the GI50 [10] was 0.34 µM, the TGI [10] was 14.2 µM and the GI50 [11] was 0.375 µM. The TGI [11] was 4.52 µM, the GI50 [12] was 0.0665 µM and the GI50 [13] was 1.38 µM. For the same compound, the TGI [13] was 13.3 µM, the GI50 [14] was 0.285 µM and the TGI [14] was 0.686 µM. For the same compound, the GI50 [15] was 0.381 µM, the TGI [15] was 4.06 µM and the GI50 [16] was 0.149 µM. The TGI [16] was 0.535 µM, the GI50 [17] was 0.216 µM and the TGI [17] was 2.03 µM. For the same compound, the GI50 [18] was 1.47 µM, the TGI [18] was 6.06 µM and the GI50 [19] was 0.189 µM. It also gave a TGI [19] of 1.41 µM, a GI50 [20] of 0.299 µM and a TGI [20] of over 100 µM. It also gave a GI50 [21] of 0.517 µM, a TGI [21] of 11.6 µM and a GI50 [22] of 0.148 µM. For the same compound, the TGI [22] was 0.906 µM, the GI50 [23] was 0.377 µM and the TGI [23] was 1.84 µM. It also gave a GI50 [24] of 0.379 µM, a TGI [24] of 2.64 µM and a GI50 [25] of 0.293 µM. For the same compound, the TGI [25] was 11.2 µM, the GI50 [26] was 0.184 µM and the TGI [26] was 0.801 µM. The GI50 [27] was 0.303 µM, the TGI [27] was 1.61 µM and the GI50 [28] was 0.429 µM. It also gave a TGI [28] of 14.4 µM, a GI50 [29] of 0.212 µM and a TGI [29] of 1.01 µM. It also gave a GI50 [30] of 0.517 µM, a TGI [30] of 4.06 µM and a GI50 [31] of 2.68 µM. It also gave a TGI [31] of 9.78 µM, a GI50 [32] of 0.196 µM and a TGI [32] of 0.805 µM. For the same compound, the GI50 [33] was 5.24 µM, the TGI [33] was over 100 µM and the GI50 [34] was 0.233 µM. It also gave a TGI [34] of 0.759 µM, a GI50 [35] of 0.343 µM and a TGI [35] of 2.13 µM. The GI50 [36] was 0.418 µM, the TGI [36] was 9.19 µM and the GI50 [37] was 0.381 µM. It also gave a TGI [37] of over 31.1 µM, a GI50 [38] of 0.222 µM and a TGI [38] of 3.54 µM. The GI50 [39] was 5.92 µM, the TGI [39] was 19.3 µM and the GI50 [40] was 0.177 µM. It also gave a TGI [40] of 0.397 µM, a GI50 [41] of 0.25 µM and a TGI [41] of 0.803 µM. For the same compound, the GI50 [42] was 0.867 µM, the TGI [42] was 3.18 µM and the GI50 [43] was 0.176 µM. For the same compound, the TGI [43] was 0.496 µM, the GI50 [44] was 0.39 µM and the TGI [44] was 1.91 µM. The GI50 [45] was 0.309 µM, the TGI [45] was 1.75 µM and the GI50 [46] was 0.367 µM. It also gave a TGI [46] of 2.15 µM, a GI50 [47] of 0.371 µM and a TGI [47] of 12.7 µM. For the same compound, the GI50 [48] was 0.358 µM, the TGI [48] was 5.71 µM and the GI50 [49] was 0.349 µM. The TGI [49] was 3.88 µM, the GI50 [50] was 0.116 µM and the TGI [50] was 0.574 µM. For the same compound, the GI50 [51] was 0.0472 µM, the GI50 [52] was 0.312 µM and the TGI [52] was 3.47 µM. It also gave a GI50 [53] of 0.32 µM, a TGI [53] of over 52.4 µM and a GI50 [54] of 1.11 µM. For the same compound, the TGI [54] was 3.32 µM, the GI50 [55] was 0.234 µM and the TGI [55] was 11.4 µM. For the same compound, the GI50 [56] was 0.571 µM, the TGI [56] was 20.4 µM and the GI50 [57] was 0.241 µM. The TGI [57] was 1.56 µM, the GI50 [58] was 0.558 µM and the TGI [58] was 2.57 µM.

`C/C(=C\CCC1=CC(=O)OC1)CCC1C2C(=O)CC(C)[C@@]3(C)CC[C@]1(C)[C@@]23C` (stereo not given in full) was tested, and the TGI [1] was over 10 µM, the TGI [3] was over 10 µM and the TGI [6] was over 10 µM. For the same compound, the TGI [7] was over 10 µM, the TGI [8] was over 10 µM and the TGI [9] was over 10 µM. The TGI [10] was over 10 µM, the TGI [11] was over 10 µM and the TGI [13] was over 10 µM. The TGI [14] was over 10 µM, the TGI [15] was over 10 µM and the TGI [18] was over 10 µM. The TGI [19] was over 10 µM, the TGI [20] was over 10 µM and the TGI [21] was over 10 µM. For the same compound, the TGI [22] was over 10 µM, the TGI [23] was over 10 µM and the TGI [24] was over 10 µM. For the same compound, the TGI [25] was over 10 µM, the TGI [26] was over 10 µM and the TGI [59] was over 10 µM. The TGI [28] was over 10 µM, the TGI [30] was over 10 µM and the TGI [37] was over 10 µM. The TGI [38] was over 10 µM, the TGI [39] was over 10 µM and the TGI [40] was over 10 µM. The TGI [41] was over 10 µM, the TGI [42] was over 10 µM and the TGI [45] was over 10 µM. The TGI [46] was over 10 µM, the TGI [47] was over 10 µM and the TGI [48] was over 10 µM. It also gave a TGI [50] of over 10 µM, a TGI [51] of over 10 µM and a TGI [52] of over 10 µM. It also gave a TGI [53] of over 10 µM, a TGI [54] of over 10 µM and a TGI [56] of over 10 µM. The TGI [57] was over 10 µM.

`CC(NC(=O)c1ccc(Cl)c(Cl)c1)c1ccc(-c2ccccc2)cc1` (stereo not given) was tested, and the TGI [1] was 47.5 µM, the TGI [2] was over 100 µM and the TGI [3] was 45.5 µM. The TGI [4] was over 100 µM, the TGI [5] was over 100 µM and the TGI [6] was over 100 µM. It also gave a TGI [8] of over 100 µM, a TGI [9] of 57.5 µM and a TGI [10] of over 100 µM. The TGI [11] was over 100 µM, the TGI [12] was over 100 µM and the TGI [13] was over 100 µM. The TGI [14] was over 100 µM, the TGI [15] was 54.5 µM and the TGI [16] was over 100 µM. For the same compound, the TGI [17] was 65.1 µM, the TGI [18] was over 100 µM and the TGI [19] was over 100 µM. For the same compound, the TGI [20] was over 100 µM, the TGI [21] was over 100 µM and the TGI [22] was over 100 µM. It also gave a TGI [23] of over 100 µM, a TGI [24] of 49.1 µM and a TGI [25] of over 100 µM. The TGI [26] was over 100 µM, the TGI [27] was over 100 µM and the TGI [59] was over 100 µM. The TGI [29] was 78.7 µM, the TGI [30] was over 100 µM and the TGI [31] was over 100 µM. It also gave a TGI [32] of over 100 µM, a TGI [33] of over 100 µM and a TGI [34] of 66.2 µM. The TGI [35] was 37.7 µM, the TGI [36] was over 100 µM and the TGI [37] was 82.5 µM. It also gave a TGI [38] of over 100 µM, a TGI [39] of over 100 µM and a TGI [40] of 28 µM. The TGI [41] was over 100 µM, the TGI [42] was over 100 µM and the TGI [43] was 42.9 µM. For the same compound, the TGI [44] was over 100 µM, the TGI [45] was over 100 µM and the TGI [46] was over 100 µM. For the same compound, the TGI [47] was 90.4 µM, the TGI [48] was over 100 µM and the TGI [49] was 46.7 µM. For the same compound, the TGI [50] was 39.3 µM, the TGI [51] was 40.3 µM and the TGI [52] was over 100 µM. The TGI [54] was 68.7 µM, the TGI [55] was over 100 µM and the TGI [56] was over 100 µM. The TGI [57] was over 100 µM and the TGI [58] was 29.4 µM.
